In brackets after ≈: the same amount, converted by molar mass. Where two headings read alike, the source gives them in different places. Where no end group is shown, it is not given here.
Legend:
[1] = system: Salmonella enterica serovar Typhimurium (IR715)
Procedure: (§1) A radial diffusion antimicrobial assay was used to assess the antimicrobial activity of feCath and LL-37 [24]. Briefly, overnight bacterial cultures were seeded into fresh tryptic soy broth (TSB). Bacteria was grown to an optical density of 0.2 at A600, pelleted and resuspended in an equal volume of 10 mM sodium phosphate buffer, pH 7.4. Resuspended bacteria were added to underlay minimal-media agarose, and peptide, at various concentrations (1000 ng/µl, 333 ng/µl, 111 ng/µl, 37 ng/µl, 12 ng/µl and 4 ng/µl, dissolved in 0.05% acetic acid), was instilled into adjacent punch-wells. Buffer alone (0.05% acetic acid) was used as the negative control. After 3 hours of incubation at 37°C, overlay nutrient rich agarose was added and allowed to incubate overnight. The following day, zones of clearance were measured. To quantitate zones of clearance, the diameter of the agarose punch (3 mm) was subtracted from the diameter of antimicrobial clearance (in mm), and the resulting number was multiplied by 10.

[2] = system: E. coli D31; details: radial diffusion assay, 10 mM sodium phosphate pH 7.4, peptide 4-1000 ng/µl in 0.05% acetic acid, 3 h 37°C then overlay overnight
Procedure: as §1

[3] = system: Listeria monocytogenes; details: radial diffusion assay, 10 mM sodium phosphate pH 7.4, peptide 4-1000 ng/µl in 0.05% acetic acid, 3 h 37°C then overlay overnight
Procedure: as §1

[4] = system: Staphylococcus pseudintermedius (clinical isolate); details: radial diffusion assay, 10 mM sodium phosphate pH 7.4, peptide 4-1000 ng/µl in 0.05% acetic acid, 3 h 37°C then overlay overnight
Procedure: as §1

[5] = system: HaeIII digested Phi-X174 phage DNA; test: DNA binding assay (gel electrophoresis, retarded migration); details: Phi-X174 HaeIII DNA 20 ng/µl; peptide 10, 30, 100 ng/µl; 5 min room temperature, 0.05% acetic acid; agarose gel, ethidium bromide
Procedure: Hae-III digested phage DNA Phi-X174 (20 ng/µl) (Roche) was incubated with varying amounts of LL-37, feCath and magainin (10 ng/µl, 30 ng/µl and 100 ng/µl) for 5 min at room temperature. The entire reaction was resolved using agarose gel electrophoresis (1% w/v) and stained with ethidium bromide.
Figure 6 Gel electrophoresis of DNA binding assay. A DNA ladder (HaeIII digested Phi-X174, 200 ng) was incubated with increasing concentrations of peptide (100 ng, 300 ng, 1000 ng) for 5 minutes in 0.05% acetic acid at room temperature. The reaction mixture was resolved using agarose gel electrophoresis ([…]). Arrow indicates retarded migration of Phi-X174 DNA into the gel.

Row | Molecule | MIC ([1]; Salmonella enterica serovar Typhimurium (IR715), radial diffusion assay, 10 mM sodium phosphate pH 7.4, peptide 4-1000 ng/µl in 0.05% acetic acid, 3 h 37°C then overlay overnight) | MIC [2] | MIC [3] | MIC [4] | DNA binding (retardation of DNA migration into the gel) [5] | MIC ([1]; serovar Typhimurium (IR715, 3 h, pH 7.4))
1 | CC[C@H](C)[C@H](NC(=O)[C@H](CCCCN)NC(=O)[C@H](CCC(=O)O)NC(=O)[C@H](CCCCN)NC(=O)[C@H](CO)NC(=O)[C@H](CCCCN)NC(=O)[C@H](CCCNC(=N)N)NC(=O)[C@H](Cc1ccccc1)NC(=O)[C@H](Cc1ccccc1)NC(=O)[C@H](CC(=O)O)NC(=O)CNC(=O)[C@H](CC(C)C)NC(=O)[C@@H](N)CC(C)C)C(=O)NCC(=O)N[C@@H](CCCCN)C(=O)N[C@@H](CCC(=O)O)C(=O)N[C@@H](Cc1ccccc1)C(=O)N[C@@H](CCCCN)C(=O)N[C@@H](CCCNC(=N)N)C(=O)N[C@H](C(=O)N[C@H](C(=O)N[C@@H](CCC(N)=O)C(=O)N[C@@H](CCCNC(=N)N)C(=O)N[C@H](C(=O)N[C@@H](CCCCN)C(=O)N[C@@H](CC(=O)O)C(=O)N[C@@H](Cc1ccccc1)C(=O)N[C@@H](CC(C)C)C(=O)N[C@@H](CCCNC(=N)N)C(=O)N[C@@H](CC(N)=O)C(=O)N[C@@H](CC(C)C)C(=O)N[C@H](C(=O)N1CCC[C@H]1C(=O)N[C@@H](CCCNC(=N)N)C(=O)N[C@H](C(=O)N[C@@H](CCC(=O)O)C(=O)N[C@@H](CO)C(=O)O)[C@@H](C)O)C(C)C)[C@@H](C)CC)C(C)C)[C@@H](C)CC [LL-37, reference compound] | 12 µg/mL (≈ 2.67 µM) | 5 µg/mL (≈ 1.11 µM) | 7 µg/mL (≈ 1.56 µM) | 15 µg/mL (≈ 3.34 µM) | – | –
2 | Magainin | – | – | – | – | lacks this ability to bind DNA | –
3 | QLGELIQQGGQKIVEKIQKIGQRIRDFFSNLRPRQEA [feCath] | – | 21 µg/mL | – | – | – | 29 µg/mL

Reference: article PMC3075274, “Expression and Activity of a Novel Cathelicidin from Domestic Cats” (PLoS ONE, 2011)
